Experimental data taken from article PMC6337391 (Molecules, 2019).

Columns and labels:
[1] = Inhibition of linoleic acid lipid peroxidation (AAPH)
Summary of the method: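 Sodium linoleate oxidation was initiated by AAPH in 0.05 M phosphate buffer, pH 7.4, at 37 °C, with test compound present and DMSO as blank. Conjugated diene hydroperoxide formation was followed as the absorbance increase at 234 nm.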

[2] = ABTS•+ decolorization assay
Summary of the method: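 Compounds (10 mM DMSO stocks, diluted) added to ABTS•+ radical generated by potassium persulfate oxidation of ABTS. Decolorization followed as absorbance at room temperature, with Trolox as standard.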

[3] = Lipophilicity as RM values by RP-TLC; format: physicochemical; design: key: RM = log[(1/Rf) − 1]; conditions: methanol/water 70/30, SD < 10%
Summary of the method: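 Reversed-phase TLC on silica gel plates impregnated with 5% (v/v) liquid paraffin, methanol/water 70/30 (v/v) mobile phase, saturated tanks at 24 °C, UV detection. RM = log[(1/Rf) − 1] from five Rf measurements.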

[4] = test system: L929 mouse fibroblasts cells; test: Cytotoxicity, propidium iodide fluorescence method; format: cell-based; conditions: 24-h incubation
Summary of the method: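 L929 cells in EMEM with 10% horse serum were allowed to attach for 24 h, then exposed to 1, 10, 20, 50 and 100 μM compound for 24 h at 37 °C. Cells were detached, stained with propidium iodide, and cell death was measured by flow cytometry.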

Structure (SMILES) | AAPH% @ 100 μM (anti-lipid peroxidation) [1] [%] | ABTS•+ Inhb. % @ 100 μM [2] | RM [3] | 1 μM Average (% pi) ± σ [4] [%] | 10 μM Average (% pi) ± σ [4] [%] | 20 μM Average (% pi) ± σ [4] [%] | 50 μM Average (% pi) ± σ [4] [%] | 100 μM Average (% pi) ± σ [4] [%]
O=C(/C=C/c1cccc2ccccc12)c1ccccc1O [b4, (E)-1-(2-hydroxyphenyl)-3-(naphthalen-1-yl) prop-2-en-1-one] | 82 | No | −0.03 |  |  |  |  | 
O=C(/C=C/C=C/c1ccc([N+](=O)[O-])cc1)c1ccc(OCCCOc2ccc(C(=O)/C=C/C=C/c3ccc([N+](=O)[O-])cc3)cc2)cc1 [c11, (2E,2′E,4E,4′E)-1,1′-((propane-1,3-diylbis(oxy))bis(4,1-phenylene))bis(5-(4-nitrophenyl)penta-2,4-dien-1-one)] | 68 | No | −0.88 | 6.4 ± 0.4 | 19.07 ± 7.23 | 34.63 ± 0.31 | 64.53 ± 3.07 | 64.53 ± 3.07
CC(=O)c1ccc(OCCOc2ccc(C(C)=O)cc2)cc1 [di, 1,1′-((ethane-1,2-diylbis(oxy))bis(4,1-phenylene))diethanone] | 22 | No | 0.67 | 4.94 ± 1.02 | 9.05 ± 0.58 | 16.78 ± 5.61 | 33.22 ± 9.65 | 33.22 ± 9.65
CC(=O)c1ccc(OCCCCCCCOc2ccc(C(C)=O)cc2)cc1 [dvi, 1,1′-((heptane-1,7-diylbis(oxy))bis-(4,1-phenylene)) diethanone] | 12 | No | 0.32 | 0.37 ± 0.52 | 1.92 ± 1.02 | 1.79 ± 1.53 | 2.55 ± 0.5 | 2.55 ± 0.5
